Measurements reported in publication PMC8586955, “Interaction Study between ESIPT Fluorescent Lipophile-Based Benzazoles and BSA” (Molecules, 2021).

Biological target: T1, bovine serum albumin (BSA) (Bos taurus, UniProt P02769)
T1 construct: gene ALB
Experiment: BSA intrinsic fluorescence quenching titration, ex […] nm
Type: binding
Conditions: double-log; PBS pH 7.2, 25 °C, BSA 11 µM, ligand 0-20 µM

T1 sequence (P02769 25-607): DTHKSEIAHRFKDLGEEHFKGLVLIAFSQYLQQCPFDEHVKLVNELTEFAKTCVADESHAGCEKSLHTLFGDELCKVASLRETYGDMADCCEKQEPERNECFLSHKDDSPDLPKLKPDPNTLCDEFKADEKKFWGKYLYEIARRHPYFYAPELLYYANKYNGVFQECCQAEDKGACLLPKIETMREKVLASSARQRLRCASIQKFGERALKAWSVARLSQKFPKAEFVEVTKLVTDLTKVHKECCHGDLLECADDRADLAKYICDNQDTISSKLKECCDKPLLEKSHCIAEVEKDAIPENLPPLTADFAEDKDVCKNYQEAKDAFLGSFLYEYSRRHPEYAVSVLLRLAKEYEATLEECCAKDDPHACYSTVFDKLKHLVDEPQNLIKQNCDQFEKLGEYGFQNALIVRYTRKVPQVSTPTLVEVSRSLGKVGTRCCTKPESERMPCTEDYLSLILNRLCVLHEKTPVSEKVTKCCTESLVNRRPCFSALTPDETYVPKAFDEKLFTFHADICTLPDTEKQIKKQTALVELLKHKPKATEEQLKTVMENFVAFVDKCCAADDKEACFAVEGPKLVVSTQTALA

SMILES | KA (×10^4 M^-1)
CCCCNCc1cc(C)c(O)c(-c2nc3ccccc3o2)c1 [compound 12, benzazole 12] | 0.61 ×10^4 M^−1
CCCCNCc1cc(C)c(O)c(-c2nc3ccccc3s2)c1 [compound 15, benzazole 15] | 0.73 ×10^4 M^−1

Continued, values first:

KA (×10^4 M^-1) | SMILES
0.74 ×10^4 M^−1 | CCCCCCCCCCCCNCc1cc(C)c(O)c(-c2nc3ccccc3o2)c1 [compound 13, benzazole 13]
0.59 ×10^4 M^−1 | CCCCCCCCCCCCCCCCCCNCc1cc(C)c(O)c(-c2nc3ccccc3o2)c1 [compound 14, benzazole 14]
0.79 ×10^4 M^−1 | CCCCCCCCCCCCNCc1cc(C)c(O)c(-c2nc3ccccc3s2)c1 [compound 16, benzazole 16]
0.69 ×10^4 M^−1 | CCCCCCCCCCCCCCCCCCNCc1cc(C)c(O)c(-c2nc3ccccc3s2)c1 [compound 17, benzazole 17]
